In US9181266B2, “2-piperidin-1-yl-acetamide compounds for use as tankyrase inhibitors” (NOVARTIS AG, priority 2011, dated 2015):

How the values were obtained:
[1] = tested on: Non-small lung cancer ABC-1 cells; assay: Cellular proliferation assay (CellTiter-Glo); type: cell-based; details: Homo sapiens, 72 h; ABC-1 cells, 3 days of compound treatment; read-out: ABC-1 IC50
Method: Cellular Proliferation Assay to Determine Compound Inhibition of Cancer Cell Growth
Viable cells were measured after 3 days of compound treatment using the CellTiter-Glo assay (Promega, G7570). Assay was performed following the manufacture protocol.

[2] = tested on: Wnt ligand-induced signaling in HEK293 cells; assay: Wnt-responsive Super-TOpFlash (STF) luciferase reporter gene assay; type: cell-based; details: Homo sapiens, Wnt3A condition medium
Method: Cellular Reporter Gene Assay to Determine Compound Inhibition of Wnt Signaling Activity
Compound activity in inhibiting Wnt ligand-induced signaling was measured using a Wnt-responsive Super-TOpFlash (STF) luciferase reporter gene assay in HEK293 cells. On day 1 of the assay, cells were plated at a density of 8000 cells per well of 384-well plate in 25 μl medium containing 5% fetal bovine serum (FBS). On the second day, […] condition medium (CM) produced from mouse L cells was added to the cells to induce Wnt signaling, followed by addition of 5 μL of compounds each well in 10-point serial dilution. On the third day, the luciferase activity was measured by the Bright-Glo™ Luciferase Assay System following manufacture's protocol (Promega, E2620). The Inhibition was calculated as: (Maximum Wnt-induced signaling−Sample)/(Maximum Wnt-induced signaling−Background)*100. “Maximum Wnt-induced signaling” is the STF signal level induced by 20% Wnt3A CM without compound; and “Background” is the STF signal level without the addition of Wnt3A CM or compound.

[3] = biological target: tankyrase 2 protein PARP domain, TNKS2P (Homo sapiens (Human), UniProt Q9H2K2); assay: TNKS2 autoparsylation assay (LC/MS detection of nicotinamide); details: read-out: TNKS2 AP IC50, 20 nM enzyme, 250 μM β-NAD+, 60 min
Method: Biochemical Assay to Determine Compound Inhibition of TNKS Enzyme Activity
The autoparsylation activity of the TNKS 1/2 or PARP1/2 enzymes was measured by the liquid chromatography-mass spectrometry (LC/MS) detection of nicotinamide as readout. Compound activity in inhibiting the TNKS and PARP autoparsylation was evaluated by IC50 measurements. […] For the background control wells, 10 μL of the 5× quenching solution per well was added prior to the addition of β-NAD^+. The % Inhibition was calculated as: (Control−Sample)/(Control−Background)*100.

[4] = biological target: human tankyrase 1 PARP catalytic domain, TNKS1P (Homo sapiens (Human), UniProt O95271); assay: TNKS1 autoparsylation assay (LC/MS detection of nicotinamide); details: read-out: TNKS1 AP IC50, 20 nM enzyme, 250 μM β-NAD+, 60 min
[5] = tested on: Axin2 protein in SW480 cells; assay: Cellular ELISA assay of Axin2 protein stabilization; type: cell-based; details: Homo sapiens, 24 hrs, read-out: Axin AC50
Method: Cellular ELISA Assay to Determine Compound Effect on Stabilizing the Axin2 Protein Compound activity in stabilizing the Axin2 protein was measured by Sandwich Enzyme-Linked Immuosorbent (ELISA) assay in the colorectal cell line SW480. 30,000 SW480 cells were seeded per well in 96-well plate and incubated overnight prior to compound treatment. […] Cells were then washed with 100 μL of cold Phosphate Buffer Saline (PBS), and lysed in 125 μl of cold 1× lysis buffer (Cell Signaling Technology, 9803) supplemented with Protease inhibitor (Roche, 11836170) and Phosphatase inhibitors (Sigma, P2850, P5726). For the ELISA assay, anti Axin-2 capture antibody (Strategic Diagnostics) antibody was diluted to a concentration of 1 μg/ml (1:1000) in Carbonate Coating buffer, pH 9.2 (Sigma, C3041-50CAP). […], of the diluted anti Axin-2 capture antibody per well was then used to coat the 96-well ELISA plate (Thermo Electron Corp., MicroLite 1 flat bottom plate #7571) overnight at 4° C. […] After blocking, plates were then washed three times with 300 μl/well of wash solution. 100 μL of prepared SW480 cell lysate was then added to each well and incubated at room temperature for 2 hours while shaking gently. After washing, 100 μL of Biotinylated anti-Axin2 antibody (CST, 2151) was added to each well and incubated room temperature for 2 hours. 100 μL of Streptavidin-HRP (R&D systems, DY998) diluted 1:200 in 1% BSA/PBS was then added in each well and incubate for 30 mins at R/T in the dark.

Sequence of tankyrase 2 protein PARP domain, TNKS2P (Q9H2K2 959-1164): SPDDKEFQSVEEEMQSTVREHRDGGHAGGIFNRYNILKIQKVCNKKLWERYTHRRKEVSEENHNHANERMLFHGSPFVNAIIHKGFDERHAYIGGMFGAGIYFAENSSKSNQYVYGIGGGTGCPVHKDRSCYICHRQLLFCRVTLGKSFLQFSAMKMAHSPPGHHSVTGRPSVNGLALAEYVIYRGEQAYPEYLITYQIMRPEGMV
Sequence of human tankyrase 1 PARP catalytic domain, TNKS1P (O95271 1112-1317): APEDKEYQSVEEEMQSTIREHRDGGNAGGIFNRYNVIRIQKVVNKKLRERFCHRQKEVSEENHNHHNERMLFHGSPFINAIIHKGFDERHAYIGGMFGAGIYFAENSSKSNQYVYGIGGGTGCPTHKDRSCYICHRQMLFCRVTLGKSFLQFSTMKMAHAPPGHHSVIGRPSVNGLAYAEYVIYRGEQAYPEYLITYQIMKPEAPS

Row | SMILES | IC50 [1] | IC50 [3] | IC50 [4] | IC50 [2] | AC50 [5]
1 | COc1ccc2c(c1)CC1(CCN(CC(=O)N(Cc3nc4c(c(=O)[nH]3)COCC4)CC3CC3)CC1)C2=O [Example 63, N-(Cyclopropylmethyl)-2-(5-methoxy-1-oxo-1,3-dihydrospiro[indene-2,4′-piperidine]-1′-yl)-N-((4-oxo-4,5,7,8-tetrahydro-3H-pyrano[4,3-d]pyrimidin-2-yl)methyl)acetamide] | 158 nM | 1 ± 1.4 nM | 10 ± 1.4 nM | 11.9 ± 3.1 nM | 137 ± 31 nM
2 | COCCN(Cc1nc2c(c(=O)[nH]1)COCC2)C(=O)CN1CCC(c2nnc(-c3ccccc3)o2)CC1 [Example 53] | 2160 nM | 142 ± 19 nM | 1130 ± 270 nM | 430 ± 50 nM | 2100 ± 200 nM
3 | COc1ccc(C(=O)C2CCN(CC(=O)N(Cc3nc4c(c(=O)[nH]3)CCCCC4)CC3CC3)CC2)cc1 [Example 7, N-(Cyclopropylmethyl)-2-(4-(4-methoxybenzoyl)piperidin-1-yl)-N-((4-oxo-4,5,6,7,8,9-hexahydro-3H-cyclohepta[d]pyrimidin-2-yl)methyl)acetamide] | 691 nM | 371 ± 3 nM | 714 ± 5 nM | 180 ± 70 nM | 680 ± 90 nM
4 | COc1ccc(C(=O)C2CCN(CC(=O)NCc3nc4c(c(=O)[nH]3)CCCCC4)CC2)cc1 [Example 6, 2-(4-(4-Methoxybenzoyl)piperidin-1-yl)-N-((4-oxo-4,5,6,7,8,9-hexahydro-3H-cyclohepta[d]pyrimidin-2-yl)methyl)acetamide] | 484 nM | 353 ± 8 nM | 575 ± 25 nM | 56 ± 7 nM | 293 ± 8 nM
5 | O=C(CN1CCC(c2nnc(-c3ccccc3)o2)CC1)NCc1nc2c(c(=O)[nH]1)COCC2 [Example 52, N-(4-Oxo-3,5,7,8-tetrahydro-4H-pyrano[4,3-d]pyrimidin-2-ylmethyl)-2-[4-(5-phenyl-[1,3,4]oxadiazol-2-yl)-piperidin-1-yl]-acetamide] | 2800 nM | 170 ± 30 nM | 1190 ± 150 nM | 155 ± 8 nM | 1090 ± 170 nM
6 | O=C(CN1CCC(c2nnc(-c3ccc(F)cc3)o2)CC1)NCc1nc2c(c(=O)[nH]1)COCC2 [Example 55, 2-{4-[5-(4-Fluoro-phenyl)-[1,3,4]oxadiazol-2-yl]piperidin-1-yl}-N-(4-oxo-3,5,7,8-tetrahydro-4H-pyrano[4,3-d]pyrimidin-2-ylmethyl)-acetamide] | 83 nM | 78 ± 4 nM | 487 ± 16 nM | 4.7 ± 1.8 nM | 25 ± 5 nM
7 | COc1ccc2c(c1)CC1(CCN(CC(=O)N(Cc3nc4c(c(=O)[nH]3)COCC4)CC(F)F)CC1)C2=O [Example 64, N-(2,2-Difluoro-ethyl)-2-(5-methoxy-1-oxo-1,3-dihydrospiro[indene-2,4′-piperidine]-1′-yl)-N-((4-oxo-4,5,7,8-tetrahydro-3H-pyrano[4,3-d]pyrimidin-2-yl)methyl)acetamide] | 12 nM | 2.5 ± 0.7 nM | 10 ± 1.4 nM | 1.2 ± 0.5 nM | 9 ± 3 nM
8 | O=C(CN1CCC2(CC1)Cc1cc(F)ccc1C2=O)N(Cc1nc2c(c(=O)[nH]1)COCC2)CC1CC1 [Example 62, N-(Cyclopropylmethyl)-2-(5-fluoro-1-oxo-1,3-dihydrospiro[indene-2,4′-piperidine]-1′-yl)-N-((4-oxo-4,5,7,8-tetrahydro-3H-pyrano[4,3-d]pyrimidin-2-yl)methyl)acetamide] | 470 nM | 4 ± 1 nM | 17 ± 1 nM | 115 ± 17 nM | 560 ± 150 nM
9 | CC(C)CN(Cc1nc2c(c(=O)[nH]1)COCC2)C(=O)CN1CCC(C(=O)c2ccc(F)cc2)CC1 [Example 26, 2-(4-(4-Fluorobenzoyl)piperidin-1-yl)-N-isobutyl-N-((4-oxo-4,5,7,8-tetrahydro-3H-pyrano[4,3-d]pyrimidin-2-yl)methyl)acetamide] | 545 nM |  | 70 ± 7 nM |  | 473 ± 36 nM
10 | O=C(c1ccc(F)cc1)C1CCN(CC(=O)N(Cc2ccccc2)Cc2nc3c(c(=O)[nH]2)COCC3)CC1 [Example 38, N-Benzyl-2-(4-(4-fluorobenzoyl)piperidin-1-yl)-N-((4-oxo-4,5,7,8-tetrahydro-3H-pyrano[4,3-d]pyrimidin-2-yl)methyl)acetamide] | 833 nM |  | 82 ± 1 nM |  | 372 ± 86 nM

Now from value to compound, other results behind:

Row | IC50 [1] | IC50 [3] | IC50 [4] | SMILES | IC50 [2] | AC50 [5]
11 | 236 nM | 32 ± 1 nM | 105 ± 1 nM | O=C(c1ccccn1)C1CCN(CC(=O)N(Cc2nc3c(c(=O)[nH]2)COCC3)CC2CC2)CC1 [Example 76, N-Cyclopropylmethyl-N-(4-oxo-3,5,7,8-tetrahydro-4H-pyrano[4,3-d]pyrimidin-2-ylmethyl)-2-[4-(pyridine-2-carbonyl)-piperidin-1-yl]-acetamide] | 32 ± 10 nM | 176 ± 14 nM
12 | 709 nM | 18 ± 1 nM | 35 ± 4 nM | O=C(c1ccc(Cl)cc1)C1CCN(CC(=O)N(Cc2nc3c(c(=O)[nH]2)COCC3)CC(F)F)CC1 [Example 69, 2-[4-(4-Chloro-benzoyl)-piperidin-1-yl]-N-(2,2-difluoro-ethyl)-N-(4-oxo-3,5,7,8-tetrahydro-4H-pyrano[4,3-c]pyrimidin-2-ylmethyl)-acetamide] | 20 ± 9 nM | 930 ± 450 nM
13 | 16 nM | 10.5 ± 0.7 nM | 29 ± 3 nM | COc1ccc(C(=O)C2CCN(CC(=O)NCc3nc4c(c(=O)[nH]3)COCC4)CC2)cc1Cl [Example 94, 2-[4-(3-Chloro-4-methoxy-benzoyl)-piperidin-1-yl]-N-(4-oxo-3,5,7,8-tetrahydro-4H-pyrano[4,3-d]pyrimidin-2-ylmethyl)-acetamide] | 2.4 ± 0.3 nM | 11 ± 2 nM
14 | 65 ± 23 nM | 133 ± 31 nM | 328 ± 1 nM | COc1ccc(C(=O)C2CCN(CC(=O)NCc3cc4c(c(=O)o3)COCC4)CC2)cc1 [Example 96, 2-[4-(4-methoxy-benzoyl)-piperidin-1-yl]-N-(1-oxo-5,8-dihydro-1H,6H-pyrano[3,4-c]pyran-3-ylmethyl)-acetamide] | 13 ± 3 nM | 24 ± 8 nM
15 | 38 nM | 18 nM | 42 ± 2 nM | COc1ccc(C(=O)C2CCN(CC(=O)NCc3nc4c(c(=O)[nH]3)COCC4)CC2)cc1OC [Example 90, 2-[4-(3,4-Dimethoxy-benzoyl)-piperidin-1-yl]-N-(4-oxo-3,5,7,8-tetrahydro-4H-pyrano[4,3-c]pyrimidin-2-ylmethyl)-acetamide] | 10.3 ± 0.8 nM | 20 ± 5 nM
16 | 96 nM | 85 ± 20 nM | 420 ± 110 nM | COc1ccccc1C(=O)C1CCN(CC(=O)N(Cc2nc3c(c(=O)[nH]2)COCC3)CC(F)F)CC1 [Example 72, N-(2,2-Difluoro-ethyl)-2-[4-(2-methoxy-benzoyl)-piperidin-1-yl]-N-(4-oxo-3,5,7,8-tetrahydro-4H-pyrano[4,3-d]pyrimidin-2-ylmethyl)-acetamide] | 8.7 ± 0.3 nM | 52 ± 28 nM
17 | 258 nM | 723 ± 10 nM | 4100 ± 500 nM | CC(c1nc2c(c(=O)[nH]1)COCC2)N(C)C(=O)CN1CCC(C(=O)c2ccc(F)cc2)CC1 (centres unmarked) [Example 98, 2-(4-(4-Fluorobenzoyl)piperidin-1-yl)-N-methyl-N-(1-(4-oxo-4,5,7,8-tetrahydro-3H-pyrano[4,3-d]pyrimidin-2-yl)ethyl)acetamide] | 17 ± 8 nM | 72 ± 15 nM
18 | 26 nM | 760 ± 15 nM | 3100 ± 400 nM | O=C(CN1CCC2(CCc3ccccc3C2=O)CC1)NCc1nc2c(c(=O)[nH]1)COCC2 [Example 65, 2-(1-oxo-3,4-dihydro-1H-spiro[naphthalene-2,4′-piperidine]-1′-yl)-N-((4-oxo-4,5,7,8-tetrahydro-3H-pyrano[4,3-d]pyrimidin-2-yl)methyl)acetamide] | 0.7 ± 0.2 nM | 12 ± 3 nM
